Experimental data published in patent US20140010801A1, “Compositions and Methods for Restoring or Rejuvenating Stem/Progenitor Cell Function” (UNIVERSITY OF PITTSBURGH - OF THE COMMONWEALTH SYSTEM OF …, priority 2012, published 2014).

Tests used:
Ercc1^−/− MEFs = assay: Reversal of senescence (SA-β-gal+) of Ercc1−/− MEFs; assay type: cell-based, mouse; details: within 24 hours of treatment
Method: FIG. 19 depicts analysis of the ability of an IKK inhibitor (IKKiVII) to rescue senescence (SA-β-gal+) […] MEFs after 24 hours of treatment.
To determine whether NF-κB is activated by endogenous genotoxic stress, which arises as a consequence of normal metabolism, Ercc1^−/− primary cells and mice were used, which are defective in DNA repair were used. Phosphorylated p65 (p-p65) and IκB were measured in nuclear and cytoplasmic extracts from early passage, congenic Ercc1^−/− and WT primary MEFs by immunoblot, and there was a >2-fold increase in nuclear p-p65 in Ercc1^−/− MEFs compared to WT, which correlated with an increase in the level of phosphorylated IκB (p-IκB) in the cytoplasm. EMSA was used to confirm increased NF-κB binding in nuclear extracts of Ercc1^−/− MEFs, which was abrogated by pretreatment of the samples with an anti-p65 antibody. To determine whether premature senescence of Ercc1^−/− MEFs is NF-κB dependent, the growth of Ercc1^−/−; p65^−/− MEFs was compared to congenic Ercc1−/− MEFs. Ercc1^−/− MEFs have reduced proliferation and increased replicative senescence as measured by SA-β-Gal staining, γ-H2AX foci and p16 expression. […] Furthermore, the Ercc1^−/−; p65^−/− MEFs had reduced ROS compared to Ercc1 cells as determined by staining mitochondria with DiOC6 and superoxide anion with MitoSOX. […]

aged WT MDSPCs = assay: Myogenic potential (fusion index) of aged MDSPCs under IKK-β inhibition; assay type: cell-based, mouse; set-up: dose or concentration left out as unconfirmed; details: fusion conditions
Description: Reduction of NF-κB enhances the myogenic differentiation potential and resistance to stress in MDSPCs isolated from naturally aged mice. To determine further whether the NF-κB signaling pathway plays a role in driving age-related stem cell dysfunction, whether pharmacologic inhibition of IKK-β would restore the myogenic potential of aged WT MDSPCs was examined. […] MDSPCs were isolated from 30 month old p65^+/− and 24 month old WT mice and compared the myogenic potential of 30 month old p65^+/− MDSPCs in vitro to naturally aged WT MDSPCs. The results confirmed that MDSPCs from p65^+/− aged mice (30 month) were more myogenic than MDSPCs from 24 month old WT mice.

Ercc1^−/Δ mice = assay: Chronic XJB-5-131 treatment of Ercc1−/Δ mice; assay type: in vivo, mouse

Question: For `O=C(c1ccc(Nc2nccc(-c3cc4ccccc4s3)n2)cc1)N1CCC(N2CCCC2)CC1` [IKKiVII], which “senescence of Ercc1^−/− MEFs (>60% of cells SA-βgal+)” value (Ercc1^−/− MEFs) is on record?
Answer: Its value is “could be reversed”.

Question: How did the “fusion index of aged MDSPCs” value (aged WT MDSPCs) turn out when `NC(=O)Nc1sc(-c2ccc(F)cc2)cc1C(N)=O` [IKKβ inhibitor IV] was run?
Answer: Its value is “significantly increased”.

Question: How did the “onset of aging-related degenerative changes” value (Ercc1^−/Δ mice) turn out when `CC(C)C[C@@H](/C=C/[C@H](Cc1ccccc1)C(=O)N1CCC[C@H]1C(=O)N[C@H](C(=O)N[C@@H](CCCNC(=O)OCc1ccccc1)C(=O)NC1CC(C)(C)N([O])C(C)(C)C1)C(C)C)NC(=O)OC(C)(C)C` [XJB-5-131] was run?
Answer: The value was “delay the onset”.
